Several values for one entry are separate records, joined by “and”; a condition that tells them apart may be missing. Identical values can stand only once. Like-named read-outs stand apart in the source and are kept apart here.
Assays:
[1] = target: Human Constitutive (Hu C-20S) β5 Active Subunit (Homo sapiens, UniProt P28074); test: IC50 determination, human constitutive 20S proteasome β5c (suc-LLVY-AMC hydrolysis); type: biochemical
[2] = target: Mtb20SOG (Mycobacterium tuberculosis, UniProt P9WHT9); test: biochemical
Chain of Mtb20SOG (P9WHT9 58-291): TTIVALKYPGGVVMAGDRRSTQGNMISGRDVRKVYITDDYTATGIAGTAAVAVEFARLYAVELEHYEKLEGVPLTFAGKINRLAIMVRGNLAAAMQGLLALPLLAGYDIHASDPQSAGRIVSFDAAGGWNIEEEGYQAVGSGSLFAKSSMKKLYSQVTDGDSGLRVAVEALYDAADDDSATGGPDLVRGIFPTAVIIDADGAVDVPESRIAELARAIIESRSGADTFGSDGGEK

[3] = Table 2, several values in a cell are repeat determinations, read-out: Hu c-20S IC50
[4] = Table 2, several values in a cell are repeat determinations
[5] = Table 3, IC50 against human constitutive β5 active subunit, read-out: Hu-C20S β5

Compound	IC50 [1, 5]	further results
Cc1cc(C(=O)N[C@@H](CC(=O)N2CCCCC2C)C(=O)N(C)[C@@H](C)C(=O)NCc2ccc(F)cc2F)no1 (some centres unmarked)	–	IC50 [1, 3]: 19 µM; IC50 [2, 4]: 10 µM
C[C@H](NC(=O)[C@H](CC(=O)N1CCCC[C@@H]1C)NC(=O)CCc1ccccc1)C(=O)NCc1cccc(NC(=O)OC(C)(C)C)c1	–	IC50 [1, 3]: 50.2 µM; IC50 [2, 4]: 24.7 µM
C[C@H](NC(=O)[C@H](CC(=O)N1CCCC[C@@H]1C)NC(=O)CCc1ccccc1)C(=O)NCc1cccc(N)c1	–	IC50 [1, 3]: 0.69 µM; IC50 [2, 4]: 0.005 µM
CCC1CCCCN1C(=O)CC(NC(=O)C1CC1c1ccccc1)C(=O)NC(C)c1nc2c(F)cccc2[nH]1 (centres unmarked)	–	IC50 [1, 3]: 8.14 µM; IC50 [2]: 0.051 µM
Cc1ncc(C(=O)N[C@@H](CC(=O)N2CCCC[C@@H]2C)C(=O)N[C@@H](C)c2ncc(-c3ccc(F)cc3F)[nH]2)s1 [CEN-105, N—((S)-1-(((S)-1-(5-(2,4-Difluorophenyl)-1H-imidazol-2-yl)ethyl)amino)-4-((S)-2-methylpiperidin-1-yl)-1,4-dioxobutan-2-yl)-2-methylthiazole-5-carboxamide]	3.9 µM	–
C[C@H](NC(=O)[C@H](CC(=O)N1CCCC[C@@H]1C)NC(=O)CC1CCOCC1)c1ncc(-c2ccc(F)cc2F)[nH]1 [CEN-106, (S)—N—((S)-1-(5-(2,4-Difluorophenyl)-1H-imidazol-2-yl)ethyl)-4-((S)-2-methylpiperidin-1-yl)-4-oxo-2-(2-(tetrahydro-2H-pyran-4-yl)acetamido)butanamide]	12.8 µM	–
CC(C)CCC(=O)N[C@@H](CC(=O)N1CCCCC1C(C)C)C(=O)N[C@@H](C)c1ncc(-c2ccc(F)cc2F)[nH]1 (stereo partly drawn) [CEN-107, N-((2S)-1-(((S)-1-(5-(2,4-Difluorophenyl)-1H-imidazol-2-yl)ethyl)amino)-4-(2-isopropylpiperidin-1-yl)-1,4-dioxobutan-2-yl)-4-methylpentanamide]	2.8 µM	–
C[C@H](NC(=O)[C@H](CC(=O)N1CCCC[C@@H]1C)NS(=O)(=O)CCC1CC1)c1ncc(-c2ccc(F)cc2F)[nH]1 [CEN-108, (S)-2-((2-Cyclopropylethyl)sulfonamido)-N—((S)-1-(5-(2,4-difluorophenyl)-1H-imidazol-2-yl)ethyl)-4-((S)-2-methylpiperidin-1-yl)-4-oxobutanamide]	6.2 µM	–
C[C@H](NC(=O)[C@H](CC(=O)N1CCCC[C@@H]1C)Nc1nc2ccccc2o1)c1ncc(-c2ccc(F)cc2F)[nH]1 [CEN-109, (S)-2-(Benzo[d]oxazol-2-ylamino)-N—((S)-1-(5-(2,4-difluorophenyl)-1H-imidazol-2-yl)ethyl)-4-((S)-2-methylpiperidin-1-yl)-4-oxobutanamide]	7.3 µM	–
C[C@H](NC(=O)[C@H](CC(=O)N1CCCC[C@@H]1C)NS(=O)(=O)c1ccccc1)c1ncc(-c2ccc(F)cc2F)[nH]1 [CEN-110, (S)—N—((S)-1-(5-(2,4-Difluorophenyl)-1H-imidazol-2-yl)ethyl)-4-((S)-2-methylpiperidin-1-yl)-4-oxo-2-(phenylsulfonamido)butanamide]	8.1 µM	–
CC(C)CCC(=O)N[C@@H](CC(=O)N1CCCC[C@@H]1C(F)(F)F)C(=O)N[C@@H](C)c1ncc(-c2ccc(F)cc2F)[nH]1 [CEN-111, N—((S)-1-(((S)-1-(5-(2,4-Difluorophenyl)-1H-imidazol-2-yl)ethyl)amino)-1,4-dioxo-4-((R)-2-(trifluoromethyl)piperidin-1-yl)butan-2-yl)-4-methylpentanamide]	4.9 µM	–
C[C@H](NC(=O)[C@H](CC(=O)N1CCCC[C@@H]1C)NS(=O)(=O)Cc1ccccc1)c1ncc(-c2ccc(F)cc2F)[nH]1 [CEN-112, (S)—N—((S)-1-(5-(2,4-Difluorophenyl)-1H-imidazol-2-yl)ethyl)-4-((S)-2-methylpiperidin-1-yl)-4-oxo-2-((phenylmethyl)sulfonamido)butanamide]	6.1 µM	–
Cc1ccc(S(=O)(=O)N[C@@H](CC(=O)N2CCCC[C@@H]2C)C(=O)N[C@@H](C)c2ncc(-c3ccc(F)cc3F)[nH]2)cc1 [CEN-113, (S)—N—((S)-1-(5-(2,4-Difluorophenyl)-1H-imidazol-2-yl)ethyl)-2-((4-methylphenyl)sulfonamido)-4-((S)-2-methylpiperidin-1-yl)-4-oxobutanamide]	6.5 µM	–
CC(C)CCS(=O)(=O)N[C@@H](CC(=O)N1CCCC[C@@H]1C)C(=O)N[C@@H](C)c1ncc(-c2ccc(F)cc2F)[nH]1 [CEN-114, (S)—N—((S)-1-(5-(2,4-Difluorophenyl)-1H-imidazol-2-yl)ethyl)-2-((3-methylbutyl)sulfonamido)-4-((S)-2-methylpiperidin-1-yl)-4-oxobutanamide]	9.7 µM	–
Cc1cc(C(=O)N[C@@H](CC(=O)N2CCC[C@@H]2c2ccccc2)C(=O)N[C@@H](C)c2ncc(-c3ccc(F)cc3F)[nH]2)no1 [CEN-115, N—((S)-1-(((S)-1-(5-(2,4-Difluorophenyl)-1H-imidazol-2-yl)ethyl)amino)-1,4-dioxo-4-((R)-2-phenylpyrrolidin-1-yl)butan-2-yl)-5-methylisoxazole-3-carboxamide]	> 100 µM	–
Cc1cc(C(=O)N[C@@H](CC(=O)N2CCCC[C@@H]2C)C(=O)N[C@@H](C)c2ncc(-c3ccccc3)[nH]2)no1 [CEN-116, 5-Methyl-N—((S)-4-((S)-2-methylpiperidin-1-yl)-1,4-dioxo-1-(((S)-1-(5-phenyl-1H-imidazol-2-yl)ethyl)amino)butan-2-yl)isoxazole-3-carboxamide]	9.5 µM	–
Cc1cc(C(=O)N[C@@H](CC(=O)N2CCCCC2C)C(=O)N[C@@H](C)c2ncc(-c3ccccc3)[nH]2)no1 (stereo partly drawn) [CEN-117, 5-Methyl-N-((2S)-4-(2-methylpiperidin-1-yl)-1,4-dioxo-1-(((S)-1-(5-phenyl-1H-imidazol-2-yl)ethyl)amino)butan-2-yl)isoxazole-3-carboxamide]	11 µM	–

Compound	IC50 [1, 5]	further results
Cc1cc(C(=O)N[C@@H](CC(=O)N2CCCC[C@@H]2C)C(=O)N[C@@H](C)c2ncc(-c3ccccc3F)[nH]2)no1 [CEN-118, N—((S)-1-(((S)-1-(5-(2-Fluorophenyl)-1H-imidazol-2-yl)ethyl)amino)-4-((S)-2-methylpiperidin-1-yl)-1,4-dioxobutan-2-yl)-5-methylisoxazole-3-carboxamide]	15.8 µM	–
Cc1cc(C(=O)N[C@@H](CC(=O)N2CCCC[C@@H]2C)C(=O)N[C@@H](C)c2ncc(-c3ccc(F)cc3)[nH]2)no1 [CEN-119, N—((S)-1-(((S)-1-(5-(4-Fluorophenyl)-1H-imidazol-2-yl)ethyl)amino)-4-((S)-2-methylpiperidin-1-yl)-1,4-dioxobutan-2-yl)-5-methylisoxazole-3-carboxamide]	18 µM	–
Cc1cc(C(=O)N[C@@H](CC(=O)N2CCC[C@@H]2c2ccccc2)C(=O)N[C@@H](C)c2ncc(-c3ccccc3)[nH]2)no1 [CEN-120, N—((S)-1,4-Dioxo-1-(((S)-1-(5-phenyl-1H-imidazol-2-yl)ethyl)amino)-4-((R)-2-phenylpyrrolidin-1-yl)butan-2-yl)-5-methylisoxazole-3-carboxamide]	> 100 µM	–
C[C@H](NC(=O)[C@H](CC(=O)N1CCC[C@@H]1c1ccccc1)NC(=O)CC1CC1)c1ncc(Cc2ccccc2)[nH]1 [CEN-121, (S)—N—((S)-1-(5-Benzyl-1H-imidazol-2-yl)ethyl)-2-(2-cyclopropylacetamido)-4-oxo-4-((R)-2-phenylpyrrolidin-1-yl)butanamide]	10.6 µM	–
C[C@H](NC(=O)[C@H](CC(=O)N1CCCC[C@@H]1C)NC(=O)CC1CCOCC1)c1ncc(Cc2ccccc2)[nH]1 [CEN-122, (S)—N—((S)-1-(5-Benzyl-1H-imidazol-2-yl)ethyl)-4-((S)-2-methylpiperidin-1-yl)-4-oxo-2-(2-(tetrahydro-2H-pyran-4-yl)acetamido)butanamide]	13.5 µM	–
Cc1cc(C(=O)N[C@@H](CC(=O)N2CCC[C@@H]2c2ccccc2)C(=O)N[C@@H](C)c2ncc(Cc3ccccc3)[nH]2)no1 [CEN-123, N—((S)-1-(((S)-1-(5-Benzyl-1H-imidazol-2-yl)ethyl)amino)-1,4-dioxo-4-((R)-2-phenylpyrrolidin-1-yl)butan-2-yl)-5-methylisoxazole-3-carboxamide]	7.4 µM	–
C[C@H](NC(=O)[C@H](CC(=O)N1CCCC[C@@H]1C)NC(=O)CC1CC1)c1ncc(Cc2ccccc2)[nH]1 [CEN-124, (S)—N—((S)-1-(5-Benzyl-1H-imidazol-2-yl)ethyl)-2-(2-cyclopropylacetamido)-4-((S)-2-methylpiperidin-1-yl)-4-oxobutanamide]	10.4 µM	–
C[C@H](NC(=O)[C@H](CC(=O)N1CCC[C@@H]1c1ccccc1)Nc1nc2ccccc2o1)c1ncc(-c2ccccc2F)[nH]1 [CEN-125, (S)-2-(benzo[d]oxazol-2-ylamino)-N—((S)-1-(5-(2-fluorophenyl)-1H-imidazol-2-yl)ethyl)-4-oxo-4-((R)-2-phenylpyrrolidin-1-yl)butanamide]	20.6 µM	–
Cc1cc(C(=O)N[C@@H](CC(=O)N2CCC[C@@H]2c2ccccc2)C(=O)N[C@@H](C)c2ncc(-c3ccccc3F)[nH]2)no1 [CF-503108]	–	IC50 [2]: 0.013 µM
CC(C)CCC(=O)N[C@@H](CC(=O)N1CCC[C@@H]1c1ccccc1)C(=O)N[C@@H](C)c1nc2ccccc2[nH]1 [CF-503150]	–	IC50 [2]: 0.047 µM and 0.045 µM and 0.05 µM and 0.069 µM and 0.059 µM and 0.042 µM
CC[C@H]1CCCCN1C(=O)C[C@H](NC(=O)CCC(C)(C)C)C(=O)N[C@@H](C)c1nc2ccccc2[nH]1 [CF-503217]	–	IC50 [1, 3]: 6.85 µM and 8.99 µM
CCC1CCCCN1C(=O)CC(NC(=O)CCC(C)C)C(=O)NC1CCCC1c1ncc(-c2ccc(F)cc2F)[nH]1 (centres unmarked) [CF-503292]	–	IC50 [1, 3]: 4.95 µM and 9.23 µM and 8.19 µM and 8.6 µM
C[C@H](NC(=O)[C@H](CC(=O)N1CCCC1)NC(=O)CCc1ccccc1)C(=O)NCc1cccc2cc[nH]c12 [CF-503293]	–	IC50 [1, 3]: 4.06 µM and 11.6 µM and 19.1 µM and 36.7 µM
C[C@H](NC(=O)[C@H](CC(=O)N1CCCC1)NC(=O)CCc1ccccc1)C(=O)NCc1cccc2cn[nH]c12 [CF-503390]	–	IC50 [2]: 0.121 µM and 0.088 µM
CC[C@H]1CCCCN1C(=O)C[C@H](NC(=O)C1CC2(CCC2)C1)C(=O)N[C@@H](C)c1nc2c(F)cccc2[nH]1 [CF-503458]	–	IC50 [2]: 0.007 µM and 0.011 µM
CC(NC(=O)C(CC(=O)N1CCCCC1C)NC(=O)C1CC2(CCC2)C1)c1nc2c(F)cccc2[nH]1 (centres unmarked) [CF-503459]	–	IC50 [2]: 0.013 µM and 0.02 µM
C[C@H](NC(=O)[C@H](CC(=O)N1CCCC[C@@H]1C)NC(=O)[C@H]1C[C@@H]1c1ccccc1)c1nc2c(F)cccc2[nH]1 [drawing 477]	–	IC50 [2, 4]: 0.166 µM

Source: patent US11203613B2, “Peptidomimetic proteasome inhibitors” (CORNELL UNIVERSITY, priority 2017, dated 2021)
